For test [1], the target named is T1, human recombinant dopamine D2L receptor (Homo sapiens, UniProt P14416).
T1 construct: expressed in transfected cells; host or cells: CHO
The test is described as follows: Dopamine D2L radioligand binding ([3H]Spiperone). To be noted: compound at 1 μM; read-out: Dopamine (1 μM) D2L, percentage inhibition of ligand binding. On the procedure:
To evaluate in radioligand binding assays the activity of compounds of the invention, human recombinant dopamine D2L receptor expressed in Chinese hamster ovary (CHO) cells (Grandy, D. et al, Proc. Natl. Acad. Sci. USA. 86:9762, 1989; Hayes, G. et al, Mol. Endocrinol. 6:920, 1992) in a modified Tris-HCl buffer (50 mM Tris-HCl, pH 7.4, 1.4 mM Ascorbic Acid, 0.001% BSA, 150 mM NaCl) was used. Compounds of the invention were incubated with 0.16 nM [^3H]Spiperone for 120 min. at 25° C. Non-specific binding was estimated in the presence of 10 μM Haloperidol. Receptor proteins were filtered and washed, the filters were then counted to determine [^3H]Spiperone specifically bound. Compounds were screened at 1 μM or lower, using 1% DMSO as vehicle. Biochemical assay results are presented as the percent inhibition of specific binding in Table 3.

Test [2] has as its target T2, human recombinant serotonin (5-Hydroxytryptamine) 5-HT2C receptor (Homo sapiens, UniProt P28335).
T2 construct: expressed in transfected cells; host or cells: CHO-K1
T2 sequence (P28335 33-458): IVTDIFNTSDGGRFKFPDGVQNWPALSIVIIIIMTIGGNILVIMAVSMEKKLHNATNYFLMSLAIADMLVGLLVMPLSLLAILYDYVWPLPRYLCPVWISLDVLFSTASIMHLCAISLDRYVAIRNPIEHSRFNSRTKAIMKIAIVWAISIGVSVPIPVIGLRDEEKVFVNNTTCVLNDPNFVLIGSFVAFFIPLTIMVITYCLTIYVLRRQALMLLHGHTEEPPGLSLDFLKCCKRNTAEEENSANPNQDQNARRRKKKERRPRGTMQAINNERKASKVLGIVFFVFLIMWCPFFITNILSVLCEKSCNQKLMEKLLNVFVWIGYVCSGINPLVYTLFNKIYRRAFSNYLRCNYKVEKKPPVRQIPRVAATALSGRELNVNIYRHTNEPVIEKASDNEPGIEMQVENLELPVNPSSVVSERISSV
The test is described as follows: Serotonin 5-HT2C radioligand binding ([3H]Mesulergine). To be noted: compound at 0.1 μM; read-out: Serotonin (0.1 μM) 5-HT2C, percentage inhibition of ligand binding. On the procedure:
To evaluate in radioligand binding assays the activity of compounds of the invention, human recombinant serotonin (5-Hydroxytryptamine) 5-HT2C receptor expressed in Chinese hamster ovary (CHO)-K1 cells (Wolf, W. et al, J. Neurochem. 69:1449, 1997) in a modified Tris-HCl buffer (50 mM Tris-HCl, pH 7.4, 0.1% Ascorbic Acid, 10 μM Pargyline) was used. Compounds of the invention were incubated with 1 nM [^3H]Mesulergine for 60 min. at 25° C. Non-specific binding was estimated in the presence of 1 μM Mianserin. Receptor proteins were filtered and washed, the filters were then counted to determine [^3H]Mesulergine specifically bound. Compounds were screened at 1 μM or lower, using 1% DMSO as vehicle. Biochemical assay results are presented as the percent inhibition of specific binding in Table 4.

Test [3] addresses T3, human recombinant histamine H1 receptor (Homo sapiens, UniProt P35367).
T3 construct: expressed in transfected cells; host or cells: CHO-K1
The test is described as follows: Histamine H1 radioligand binding ([3H]Pyrilamine). The following applies: compound at 1 μM; 1.2 nM [3H]Pyrilamine; read-out: Histamine Binding (1 μM) H1, percentage inhibition. On the procedure: To evaluate in radioligand binding assays the activity of compounds of the invention, human recombinant histamine H1 receptor expressed in Chinese hamster ovary (CHO) K1 cells (De Backer, M. et al, Biochem. Biophys. Res. Comm. 197(3):1601, 1993) in a modified Tris-HCl buffer (50 mM Tris-HCl, pH 7.4, 2 mM MgCl2, 100 mM NaCl, 250 mM Sucrose) was used. Compounds of the invention were incubated with 1.2 nM [^3H]Pyrilamine for 180 min. at 25° C. Non-specific binding was estimated in the presence of 1 μM Pyrilamine. Receptor proteins were filtered and washed, the filters were then counted to determine [^3H]Pyrilamine specifically bound. Compounds were screened at 1 μM or lower, using 1% DMSO as vehicle. Biochemical assay results are presented as the percent inhibition of specific binding in Table 2.

In test [4] the target is T4, human recombinant serotonin (5-Hydroxytryptamine) 5-HT2A receptor (Homo sapiens, UniProt P28223).
T4 construct: expressed in transfected cells; host or cells: CHO-K1
Nature of the test: Serotonin 5-HT2A radioligand binding ([3H]Ketanserin). To be noted: compound at 0.1 μM; read-out: Serotonin (0.1 μM) 5-HT2A, percentage inhibition of ligand binding. On the procedure: To evaluate in radioligand binding assays the activity of compounds of the invention, human recombinant serotonin (5-Hydroxytryptamine) 5-HT2A receptor expressed in Chinese hamster ovary (CHO)-K1 cells (Bonhaus, D. et al, Br. J. Pharmacol. 115:622, 1995; Saucier, C. et al, J. Neurochem. 68:1998, 1997) in a 50 mM Tris-HCl buffer, pH 7.4, was used. Compounds of the invention were incubated with 0.5 nM [^3H]Ketanserin for 60 min. at 25° C. Non-specific binding was estimated in the presence of 1 μM Mianserin. Receptor proteins were filtered and washed, the filters were then counted to determine [^3H]Ketanserin specifically bound. Compounds were screened at 1 μM or lower, using 1% DMSO as vehicle. Biochemical assay results are presented as the percent inhibition of specific binding in Table 4.

For test [5], the target named is T5, human recombinant serotonin (5-Hydroxytryptamine) 5-HT7 receptor (Homo sapiens, UniProt P34969).
T5 construct: expressed in transfected cells; host or cells: CHO
Nature of the test: Serotonin 5-HT7 radioligand binding ([3H]LSD). The following applies: compound at 0.1 μM; read-out: Serotonin (0.1 μM) 5-HT7, percentage inhibition of ligand binding. On the procedure:
To evaluate in radioligand binding assays the activity of compounds of the invention, human recombinant serotonin (5-Hydroxytryptamine) 5-HT7 receptor expressed in Chinese hamster ovary (CHO) cells (Roth, B. et al, J. Pharmacol. Exp. Ther. 268:1403, 1994; Shen, Y. et al, J. Biol. Chem. 268:18200, 1993) in a modified Tris-HCl buffer (50 mM Tris-HCl, pH 7.4, 10 mM MgCl2, 0.5 mM EDTA) was used. Compounds of invention were incubated with 5.5 nM [^3H]Lysergic acid diethylamide (LSD) for 120 min. at 25° C. Non-specific binding was estimated in the presence of 10 μM Serotonin (5-HT). Receptor proteins were filtered and washed, the filters were then counted to determine [^3H]LSD specifically bound. Compounds were screened at 1 μM or lower, using 1% DMSO as vehicle. Biochemical assay results are presented as the percent inhibition of specific binding in Table 4.

The target of test [6] is T6, human recombinant serotonin (5-Hydroxytryptamine) 5-HT6 receptor (Homo sapiens, UniProt P50406).
T6 construct: expressed in transfected cells; host or cells: HeLa
Nature of the test: Serotonin 5-HT6 radioligand binding ([3H]LSD). The following applies: compound at 0.1 μM; read-out: Serotonin (0.1 μM) 5-HT6, percentage inhibition of ligand binding. The procedure: To evaluate in radioligand binding assays the activity of compounds of the invention, human recombinant serotonin (5-Hydroxytryptamine) 5-HT6 receptor expressed in human HeLa cells (Monsma, F. Jr. et al, Mol. Pharmacol. 43:320, 1993) in a modified Tris-HCl buffer (50 mM Tris-HCl, pH 7.4, 150 mM NaCl, 2 mM Ascorbic Acid, 0.001% BSA) was used. Compounds of the invention were incubated with 1.5 nM [3H]Lysergic acid diethylamide (LSD) for 120 min. at 37° C. Non-specific binding was estimated in the presence of 5 μM Serotonin (5-HT). Receptor proteins were filtered and washed, the filters were then counted to determine [3H]LSD specifically bound. Compounds were screened at 1 μM or lower, using 1% DMSO as vehicle. Biochemical assay results are presented as the percent inhibition of specific binding in Table 4.

T6 sequence (P50406 whole entry): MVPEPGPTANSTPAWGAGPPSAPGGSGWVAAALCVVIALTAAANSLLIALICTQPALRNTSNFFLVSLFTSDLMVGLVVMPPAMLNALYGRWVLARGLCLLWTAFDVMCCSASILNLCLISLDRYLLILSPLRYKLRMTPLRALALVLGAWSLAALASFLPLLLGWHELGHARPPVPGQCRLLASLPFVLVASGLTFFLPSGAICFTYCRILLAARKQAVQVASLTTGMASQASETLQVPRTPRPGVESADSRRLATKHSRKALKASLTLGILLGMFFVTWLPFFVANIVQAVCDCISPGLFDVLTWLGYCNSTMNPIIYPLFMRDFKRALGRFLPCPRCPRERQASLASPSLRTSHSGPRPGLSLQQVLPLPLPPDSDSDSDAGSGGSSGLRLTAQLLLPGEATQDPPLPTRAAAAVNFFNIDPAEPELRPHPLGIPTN
T4 sequence (P28223 whole entry): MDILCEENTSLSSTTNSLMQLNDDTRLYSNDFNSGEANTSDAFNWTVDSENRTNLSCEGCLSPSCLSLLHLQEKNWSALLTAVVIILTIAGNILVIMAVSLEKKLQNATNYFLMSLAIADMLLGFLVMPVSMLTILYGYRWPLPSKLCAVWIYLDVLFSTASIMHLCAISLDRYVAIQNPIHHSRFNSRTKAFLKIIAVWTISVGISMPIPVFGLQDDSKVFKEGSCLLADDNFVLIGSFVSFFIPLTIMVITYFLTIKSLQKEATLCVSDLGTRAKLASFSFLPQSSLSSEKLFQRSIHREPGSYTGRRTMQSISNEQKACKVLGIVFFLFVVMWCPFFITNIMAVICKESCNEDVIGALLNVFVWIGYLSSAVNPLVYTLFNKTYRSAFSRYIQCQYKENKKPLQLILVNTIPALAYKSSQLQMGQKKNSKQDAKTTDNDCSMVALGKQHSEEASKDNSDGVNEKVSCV
T5 sequence (P34969 whole entry): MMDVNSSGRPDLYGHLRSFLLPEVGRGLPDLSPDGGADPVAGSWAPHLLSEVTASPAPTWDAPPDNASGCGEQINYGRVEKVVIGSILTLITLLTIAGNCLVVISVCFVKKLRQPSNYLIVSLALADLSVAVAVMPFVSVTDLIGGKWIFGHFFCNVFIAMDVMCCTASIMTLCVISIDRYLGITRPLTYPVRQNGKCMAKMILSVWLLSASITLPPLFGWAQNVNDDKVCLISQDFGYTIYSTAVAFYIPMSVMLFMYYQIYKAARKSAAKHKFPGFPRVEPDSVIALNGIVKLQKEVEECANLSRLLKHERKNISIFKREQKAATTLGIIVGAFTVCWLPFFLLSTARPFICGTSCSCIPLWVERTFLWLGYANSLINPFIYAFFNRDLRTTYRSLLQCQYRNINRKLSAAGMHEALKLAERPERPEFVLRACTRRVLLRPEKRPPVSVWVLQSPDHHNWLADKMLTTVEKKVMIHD
T3 sequence (P35367 whole entry): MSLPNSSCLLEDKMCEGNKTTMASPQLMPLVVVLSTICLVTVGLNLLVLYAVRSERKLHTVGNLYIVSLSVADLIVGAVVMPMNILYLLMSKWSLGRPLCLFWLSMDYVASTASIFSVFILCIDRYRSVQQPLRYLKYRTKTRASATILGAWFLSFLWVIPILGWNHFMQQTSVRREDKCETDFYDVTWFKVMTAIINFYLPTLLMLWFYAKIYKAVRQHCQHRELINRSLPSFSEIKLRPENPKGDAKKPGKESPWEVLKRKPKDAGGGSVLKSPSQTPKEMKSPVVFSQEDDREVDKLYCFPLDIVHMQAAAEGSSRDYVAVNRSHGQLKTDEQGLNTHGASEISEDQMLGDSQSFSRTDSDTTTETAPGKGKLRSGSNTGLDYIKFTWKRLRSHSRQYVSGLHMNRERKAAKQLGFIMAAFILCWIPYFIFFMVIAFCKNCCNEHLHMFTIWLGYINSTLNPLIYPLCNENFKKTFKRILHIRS
T1 sequence (P14416 whole entry): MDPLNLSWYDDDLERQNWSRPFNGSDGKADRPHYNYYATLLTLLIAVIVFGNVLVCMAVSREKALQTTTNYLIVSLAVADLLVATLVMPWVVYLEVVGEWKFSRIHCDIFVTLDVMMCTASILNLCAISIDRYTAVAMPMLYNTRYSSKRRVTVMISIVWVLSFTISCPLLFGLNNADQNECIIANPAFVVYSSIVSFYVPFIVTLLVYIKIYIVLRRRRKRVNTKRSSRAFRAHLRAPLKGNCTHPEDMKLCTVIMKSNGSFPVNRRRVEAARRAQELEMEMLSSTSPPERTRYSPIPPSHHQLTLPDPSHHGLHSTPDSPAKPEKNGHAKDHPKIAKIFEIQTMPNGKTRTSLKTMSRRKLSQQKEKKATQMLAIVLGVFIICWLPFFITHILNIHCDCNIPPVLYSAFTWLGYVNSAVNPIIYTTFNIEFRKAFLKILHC

As a reminder, the inhibition is the change of the read-out against control, counted positive when it falls. For `CN1CCc2c(c3cccc4c3n2CCC4)C1` [Compound 8], the inhibition at 1 µM in test [1] is 15%; in test [3], 49%. Moreover, the inhibition at 0.1 µM was found to be 48% in test [2], 30% in test [4], 14% in test [5] and 9% in test [6].

For `O=C(CCCN1CCc2c(c3cccc4c3n2CCC4)C1)c1ccc(F)cc1` [Compound 14], the inhibition at 1 µM in test [1] came to 86%; in test [3], 78%. For the same compound, the inhibition at 0.1 µM in test [2] is 92%; in test [4], 99%; in test [5], 58%; in test [6] it was 21%.

As to `Cc1cc2c3c(c1)c1c(n3CC(c3ccc(F)cc3)CC2)CCN(C)C1` (stereo not drawn) [Compound 157, 6-(4-fluorophenyl)-2,11-dimethyl-4,5,6,7,9,10,11,12-octahydroazepino[3,2,1-hi]pyrido[4,3-b]indole], the figures for the inhibition at 1 µM in test [1] and in test [3] were 83% and 95%, respectively. Also, the inhibition at 0.1 µM in test [2] turned out to be 96%; in test [4], 90%; in test [5] it was 80%; in test [6], 91%.

With `CN1CCc2c(c3cccc4c3n2CC(c2ccncc2)C4)C1` (stereo not drawn) [Compound 7], the values for the inhibition at 1 µM in test [1] and in test [3] were 54% and 92%, respectively. For the same compound, the inhibition at 0.1 µM in test [2] is -5%; in test [4] it was 7%; in test [5], 10%; in test [6], -2%.

`CN1CCc2c(c3cccc4c3n2C(c2ccccc2)C(=O)N4)C1` (stereo not drawn) [Compound 6]: the inhibition at 1 µM worked out at 41% in test [1] and 46% in test [3]. In addition, the inhibition at 0.1 µM in test [2] is 7%; in test [4], 12%; in test [5] it was 30%; in test [6] it was -6%.

For `Cc1cc2c3c(c1)c1c(n3C(c3ccccc3)C2)CCN(C)C1` (stereo not drawn) [Compound 12], the inhibition at 1 µM in test [1] was found to be 44%; in test [3] it was 101%. Further, the inhibition at 0.1 µM in test [2] turned out to be 102%; in test [4], 90%; in test [5], 81%; in test [6] it was 59%.

In the case of `Cc1cc2c(-c3ccccc3)cn3c4c(c(c1)c23)CN(C)CC4` [Compound 211], the values for the inhibition at 0.1 µM in test [4], in test [5] and in test [6] were 50%, 78% and 47%, respectively.

With `Cc1cc2c3c(c1)c1c(n3CC(c3ccccc3)O2)CCN(C)C1` (stereo not drawn) [Compound 15, 5,8-dimethyl-2-phenyl-1,2,7,8,9,10-hexahydro-[1,4]oxazino[2,3,4-hi]pyrido[4,3-b]indole], the inhibition at 1 µM amounted to 76% in test [1] and 96% in test [3]. The inhibition at 0.1 µM in test [2] was determined as 4%; in test [4], 10%; in test [5], 9%; in test [6], 21%.

Take `Cc1cc2c3c(c1)c1c(n3CC2)CCN(CCCC(=O)c2ccc(F)cc2)C1` [Compound 13]: the inhibition at 1 µM in test [1] was 91%; in test [3] it was 64%. Further, the inhibition at 0.1 µM in test [2] came to 93%; in test [4], 98%; in test [5], 62%; in test [6], 31%.

In the case of `CN1CCc2c(c3cccc4c3n2CC(=O)N4)C1` [Compound 5], the inhibition at 1 µM worked out at 21% in test [1] and 5% in test [3]. The inhibition at 0.1 µM in test [2] is 13%; in test [4], -4%; in test [5] it was 4%; in test [6] it was 4%.

Take `CN1CCc2c(c3cccc4c3n2CC(=O)N4Cc2ccncc2)C1` [Compound 159]: the figures for the inhibition at 1 µM in test [1] and in test [3] were 6% and 16%, respectively. The inhibition at 0.1 µM turned out to be 35% in test [2], 53% in test [4], 38% in test [5] and 4% in test [6].

Consider `CN1CCc2c(c3cccc4c3n2CC(c2ccc(F)cc2)C4)C1` (stereo not drawn) [Compound 16], for which the inhibition at 1 µM in test [1] is 91%; in test [3], 78%. The inhibition at 0.1 µM in test [2] stood at 34%; in test [4], 40%; in test [5], 16%; in test [6] it was 57%.

With `Cc1ccc(C2Cn3c4c(c5cccc2c53)CN(C)CC4)cn1` (stereo not drawn) [Compound 210], the inhibition at 0.1 µM in test [4] came to 23%; in test [5], 21%; in test [6], 1%.

Regarding `CN1CCc2c(c3cccc4c3n2CCS4)C1` [Compound 11, 8-methyl-1,2,7,8,9,10-hexahydropyrido[4,3-b][1,4]thiazino[2,3,4-hi]indole], the inhibition at 1 µM worked out at 10% in test [1] and 39% in test [3]. Also, the inhibition at 0.1 µM is 57% in test [2], 27% in test [4], -8% in test [5] and 18% in test [6].

The values are drawn from patent publication US9193728B2, “Fused tetracyclic pyrido [4,3-B] indole and pyrido [3,4-B] indole derivatives and methods of use” (Medivation Technologies, Inc., priority 2010, dated 2015).
